From ChEMBL document CHEMBL4118134, “Design, synthesis, and evaluation of novel N-1 fluoroquinolone derivatives: Probing for binding contact with the active site tyrosine of gyrase” (Bioorg Med Chem Lett, 2018)
pIC50: −log10 of the molar value. Activity calls are given as the source filed them. The calls are words filed in the database; no cut-off is given here.

Tests used:
[1] = biological target: T1, DNA gyrase (Escherichia coli) (UniProt P0AES6+P0AES4); experiment: Inhibition of Escherichia coli DNA gyrase subunit GyrA/GyrB supercoiling activity at 10 uM using relaxed pBR322 DNA incubated for 15 mins by ethidium bromide staining based gel electrophoresis method; type: protein-complex assay
[2] = biological target: T1, DNA gyrase (Escherichia coli); experiment: Poison activity at Escherichia coli DNA gyrase assessed as increase in linear DNA generation at 10 uM using supercoiled pBR322 DNA incubated for 10 mins by ethidium bromide staining based gel electrophoresis based DNA cleavage assay relative to untreated control; type: protein-complex assay
[3] = biological target: DNA gyrase (Escherichia coli, UniProt P0AES4+P0AES6); experiment: Inhibition of Escherichia coli DNA gyrase subunit GyrA/GyrB supercoiling activity using relaxed pBR322 DNA incubated for 15 mins by ethidium bromide staining based gel electrophoresis method; type: protein-complex assay
[4] = organism: Homo sapiens; experiment: Inhibition of human topoisomerase 2 assessed as reduction in decatenatation of kinetoplast DNA at 200 uM incubated for 15 mins by ethidium bromide staining based gel electrophoresis method
[5] = Inhibition of human topoisomerase 2 assessed as reduction in decatenatation of kinetoplast DNA incubated for 15 mins by ethidium bromide staining based gel electrophoresis method
[6] = organism: Homo sapiens; experiment: Poison activity at human topoisomerase 2 assessed as increase in linear DNA generation at 5 to 10 uM incubated for 10 mins by ethidium bromide staining based gel electrophoresis based DNA cleavage assay relative to untreated control

| SMILES | inhibition [1] | pIC50 [3] | inhibition [4] | pIC50 [5] | fold change (FC) [2] | Activity [6] |
| --- | --- | --- | --- | --- | --- | --- |
| COc1c(N2CC[C@@H](CN)C2)c(F)cc2c1N(C1CC1)CC(C(=O)O)C2=O (stereo not given in full) | > 96% | 6.92 | inactive |  | > 4 |  |
| COc1cc([C@@H]2c3cc4c(cc3[C@@H](O[C@@H]3O[C@@H]5CO[C@@H](C)O[C@H]5[C@H](O)[C@H]3O)[C@H]3COC(=O)[C@H]23)OCO4)cc(OC)c1O [ETOPOSIDE] |  |  |  | 4.22 |  | 400 to 800% |
| CCN1CCN(c2c(F)cc3c(=O)c(C(=O)O)cn(Cc4ccccc4)c3c2OC)CC1 | 23.3% |  |  |  | < 2 |  |
| CCN1CCN(c2c(F)cc3c(=O)c(C(=O)O)cn(CCCCCN)c3c2OC)CC1 | < 5% |  |  |  | < 2 |  |
| COc1ccc(Cn2cc(C(=O)O)c(=O)c3cc(F)c(N4CC[C@@H](CN)C4)c(OC)c32)cc1 | 25.2% |  |  |  | < 2 |  |
| COc1c(N2CC[C@@H](CN)C2)c(F)cc2c(=O)c(C(=O)O)cn(CCCN)c12 | < 5% |  |  |  | < 2 |  |

Continued, in another order:

| inhibition [1] | pIC50 [3] | inhibition [4] | pIC50 [5] | SMILES | fold change (FC) [2] | Activity [6] |
| --- | --- | --- | --- | --- | --- | --- |
| < 5% |  |  |  | COc1c(N2CC[C@@H](CN)C2)c(F)cc2c(=O)c(C(=O)O)cn(CCCN3C(=O)c4ccccc4C3=O)c12 | < 2 |  |
| 37.7% |  |  |  | COc1c(N2CC[C@@H](CN)C2)c(F)cc2c(=O)c(C(=O)O)cn(Cc3ccccc3)c12 | < 2 |  |
| 12.3% |  |  |  | COc1c(N2CC[C@@H](CN)C2)c(F)cc2c(=O)c(C(=O)O)cn(CCCCCN)c12 | < 2 |  |
| 11% |  |  |  | COc1c(N2CC[C@@H](CN)C2)c(F)cc2c(=O)c(C(=O)O)cn(CCc3ccccc3)c12 | < 2 |  |
| 27.1% |  |  |  | COc1c(N2CC[C@@H](CN)C2)c(F)cc2c(=O)c(C(=O)O)cn(CCCc3ccccc3)c12 | < 2 |  |
| 25.7% |  |  |  | COc1c(N2CC[C@@H](CN)C2)c(F)cc2c(=O)c(C(=O)O)cn(CCCCN)c12 | < 2 |  |
| 20.4% |  |  |  | COc1c(N2CC[C@@H](CN)C2)c(F)cc2c(=O)c(C(=O)O)cn(CCCCN3C(=O)c4ccccc4C3=O)c12 | < 2 |  |
| 20.2% |  |  |  | COc1c(N2CC[C@@H](CN)C2)c(F)cc2c(=O)c(C(=O)O)cn(CCCCCN3C(=O)c4ccccc4C3=O)c12 | < 2 |  |
